According to patent US9657006B2, “Macrocyclic factor VIIa inhibitors” (BRISTOL-MYERS SQUIBB COMPANY, priority 2013, dated 2017):
Where a name gives a salt, the structure may show the parent alone. Read-outs that look alike come from different tables or passages of the source.

Key:
[1] = amide bond
FVIIa = target: T1, FVIIa (Homo sapiens, UniProt P08709); assay: FVIIa Ki (25° C.): FVIIa peptide substrate assay; format: biochemical; conditions: S2288 peptide substrate, full-length human TF
T1 construct: with about 1% of the total amount in the proteolytically active form factor VIIa
T1 sequence (P08709 213-466 limits assumed): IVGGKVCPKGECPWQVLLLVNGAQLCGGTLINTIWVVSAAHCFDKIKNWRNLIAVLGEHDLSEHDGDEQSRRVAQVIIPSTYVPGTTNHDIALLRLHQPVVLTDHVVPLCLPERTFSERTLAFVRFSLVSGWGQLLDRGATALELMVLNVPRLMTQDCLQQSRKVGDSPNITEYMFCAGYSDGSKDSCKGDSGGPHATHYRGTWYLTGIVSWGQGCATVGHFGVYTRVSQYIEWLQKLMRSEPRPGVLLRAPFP
T1 sequence (P08709 61-212 limits assumed): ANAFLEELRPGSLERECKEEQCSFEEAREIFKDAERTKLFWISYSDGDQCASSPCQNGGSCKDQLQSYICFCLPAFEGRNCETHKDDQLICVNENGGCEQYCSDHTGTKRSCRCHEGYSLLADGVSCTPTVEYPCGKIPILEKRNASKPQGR
T1 sequence (P13726 33-295 partner): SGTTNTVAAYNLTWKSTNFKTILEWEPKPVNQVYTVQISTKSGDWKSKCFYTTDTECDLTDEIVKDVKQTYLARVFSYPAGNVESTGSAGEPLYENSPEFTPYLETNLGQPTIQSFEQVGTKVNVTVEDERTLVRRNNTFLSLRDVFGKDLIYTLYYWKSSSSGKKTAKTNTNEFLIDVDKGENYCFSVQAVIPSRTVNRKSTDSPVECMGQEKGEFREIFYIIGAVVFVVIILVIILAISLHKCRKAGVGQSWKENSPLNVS
Procedure: The effectiveness of compounds of the present invention as inhibitors of the coagulation Factors, VIIa, IXa, Xa, XIa, XIIa, plasma kallikrein or thrombin, tissue kallikrein and activated protein C, can be determined using a relevant purified serine protease, respectively, and an appropriate synthetic substrate. The rate of hydrolysis of the chromogenic or fluorogenic substrate by the relevant serine protease was measured both in the absence and presence of compounds of the present invention. […] A decrease in the rate of absorbance or fluorescence change in the presence of inhibitor is indicative of enzyme inhibition. Such methods are known to one skilled in the art. The results of this assay are expressed as the inhibitory constant, Ki.
a. FVIIa Ki (25° C.): FVIIa Peptide Substrate Assay
S2288 (range of concentrations) and FVIIa inhibitor were incubated for 15 minutes (min) at 25° C. Reactions were initiated by addition of a solution of full-length human TF (6 nM), FVIIa (0.75 nM), and PCPS (25 μM). FVIIa hydrolyses S2288, which was monitored for up to 60 min at 405 nm. Steady-state reaction velocity data (vs) was globally fit to Equation 1 for competitive inhibition. vs=Vmax[S]/([S]+Km(1+[I]/Ki)) (Eq. 1) where Vmax is maximum velocity, [S] is substrate concentration, Km is the Michaelis-Menten constant, [I] is the inhibitor concentration, and Ki is the inhibitor dissociation constant (GraFit, version 5, Erithacus Software Ltd, West Sussex, UK).

With `CCOC(=O)CC1NC(=O)[C@H](Nc2ccc(C#N)cc2)c2ccc(OCC(F)F)c(c2)CCC(=O)Nc2cccc1c2` (some centres unmarked) as the compound, how does the ring closure, isolated yield ([1]; 14-membered ring, HATU) read?
The ring closure, isolated yield was 21%.

Which ring closure, isolated yield ([1]; from CNCc1cc(NC(=O)CCc2cc(C(Nc3ccc(C#N)cc3)C(=O)O)ccc2OCC(F)F)cc(F)c1OC(CF)CF, 14-membered ring, BOP) does the source give for `CN1Cc2cc(cc(F)c2OC(CF)CF)NC(=O)CCc2cc(ccc2OCC(F)F)C(Nc2ccc(C#N)cc2)C1=O` (centres unmarked) here?
Its ring closure, isolated yield is 44%.

For `CN1Cc2cc(cc(F)c2OC(F)F)NC(=O)CCc2cccc(c2)C(Nc2ccc(C#N)cc2)C1=O` (centres unmarked), which ring closure, isolated yield ([1]; from CN(Cc1cc(N)cc(F)c1OC(F)F)C(=O)C(Nc1ccc(C#N)cc1)c1cccc(CCC(=O)O)c1, 14-membered ring, BOP/DMAP/DIPEA, DCM/DMF, 4.8 mM, 40.0 °C, 21.0 h) is on record?
The ring closure, isolated yield was 80%.

For `CN1Cc2cc(cc(F)c2OCC(F)F)NC(=O)CCc2cc(ccc2OCC(F)F)C(Nc2ccc(C#N)cc2)C1=O` (centres unmarked), which ring closure, isolated yield ([1]; from CNCc1cc(NC(=O)CCc2cc(C(Nc3ccc(C#N)cc3)C(=O)O)ccc2OCC(F)F)cc(F)c1OCC(F)F, 14-membered ring, BOP) is on record?
The ring closure, isolated yield was 62%.

With `CN1Cc2cc(ccc2S(=O)(=O)C(F)(F)F)NC(=O)CCc2cc(ccc2OCC(F)F)C(Nc2ccc3c(N(C(=O)OC(C)(C)C)C(=O)OC(C)(C)C)ncc(F)c3c2)C1=O` (centres unmarked) as the compound, how does the ring closure, isolated yield ([1]; from CNCc1cc(NC(=O)CCc2cc(C(Nc3ccc4c(N(C(=O)OC(C)(C)C)C(=O)OC(C)(C)C)ncc(F)c4c3)C(=O)O)ccc2OCC(F)F)ccc1S(=O)(=O)C(F)(F)F, 14-membered ring, BOP) read?
Its ring closure, isolated yield is 45%.

Which ring closure, isolated yield ([1]; from CNCc1cc(NC(=O)CCc2cc(C(Nc3ccc4c(N(C(=O)OC(C)(C)C)C(=O)OC(C)(C)C)ncc(F)c4c3)C(=O)O)ccc2C2CC2)ccc1S(=O)(=O)C1CC1, 14-membered ring, BOP) does the source give for `CN1Cc2cc(ccc2S(=O)(=O)C2CC2)NC(=O)CCc2cc(ccc2C2CC2)C(Nc2ccc3c(N(C(=O)OC(C)(C)C)C(=O)OC(C)(C)C)ncc(F)c3c2)C1=O` (centres unmarked) here?
The ring closure, isolated yield was 82%.

With `CN1Cc2cc(ccc2S(=O)(=O)C2CC2)NC(=O)CCc2cc(ccc2F)C(Nc2ccc3c(N(C(=O)OC(C)(C)C)C(=O)OC(C)(C)C)ncc(F)c3c2)C1=O` (centres unmarked) as the compound, how does the ring closure, isolated yield ([1]; from CNCc1cc(NC(=O)CCc2cc(C(Nc3ccc4c(N(C(=O)OC(C)(C)C)C(=O)OC(C)(C)C)ncc(F)c4c3)C(=O)O)ccc2F)ccc1S(=O)(=O)C1CC1, 14-membered ring, BOP/DMAP/DIPEA, DCM/DMF, 25.0 °C, 12.0 h) read?
The ring closure, isolated yield was 30%.

With `CN1Cc2cc(ccc2S(=O)(=O)C2CC2)NC(=O)CCc2cccc(c2)C(Nc2ccc3c(N(C(=O)OC(C)(C)C)C(=O)OC(C)(C)C)ncc(F)c3c2)C1=O` (centres unmarked) as the compound, how does the ring closure, isolated yield ([1]; from CNCc1cc(NC(=O)CCc2cccc(C(Nc3ccc4c(N(C(=O)OC(C)(C)C)C(=O)OC(C)(C)C)ncc(F)c4c3)C(=O)O)c2)ccc1S(=O)(=O)C1CC1, 14-membered ring, BOP/DMAP/DIPEA, DCM/DMF, 25.0 °C) read?
The ring closure, isolated yield was 41%.

Which ring closure, isolated yield ([1]; from CNCc1cc(NC(=O)CCc2cccc(C(Nc3ccc4c(N(C(=O)OC(C)(C)C)C(=O)OC(C)(C)C)nccc4c3)C(=O)O)c2)ccc1S(=O)(=O)C1CC1, 14-membered ring, BOP/DMAP/DIPEA, DCM/DMF, 23.3 mM, 25.0 °C, 12.0 h) does the source give for `CN1Cc2cc(ccc2S(=O)(=O)C2CC2)NC(=O)CCc2cccc(c2)C(Nc2ccc3c(N(C(=O)OC(C)(C)C)C(=O)OC(C)(C)C)nccc3c2)C1=O` (centres unmarked) here?
The ring closure, isolated yield was 50%.

For `COc1c(F)cc2cc1CCC(=O)Nc1ccc(S(=O)(=O)C3CC3)c(c1)CN(C)C(=O)C2Nc1ccc2c(N(C(=O)OC(C)(C)C)C(=O)OC(C)(C)C)ncc(F)c2c1` (centres unmarked), which ring closure, isolated yield ([1]; from CNCc1cc(NC(=O)CCc2cc(C(Nc3ccc4c(N(C(=O)OC(C)(C)C)C(=O)OC(C)(C)C)ncc(F)c4c3)C(=O)O)cc(F)c2OC)ccc1S(=O)(=O)C1CC1, 14-membered ring, BOP/DMAP/DIPEA, DCM/DMF, 25.0 °C) is on record?
The ring closure, isolated yield was 18%.

With `COc1cc2cc(c1)C(Nc1ccc3c(N(C(=O)OC(C)(C)C)C(=O)OC(C)(C)C)ncc(F)c3c1)C(=O)N(C)Cc1cc(ccc1S(=O)(=O)C1CC1)NC(=O)CC2` (centres unmarked) as the compound, how does the ring closure, isolated yield ([1]; from CNCc1cc(NC(=O)CCc2cc(OC)cc(C(Nc3ccc4c(N(C(=O)OC(C)(C)C)C(=O)OC(C)(C)C)ncc(F)c4c3)C(=O)O)c2)ccc1S(=O)(=O)C1CC1, 14-membered ring, BOP/DMAP/DIPEA, DCM/DMF, 25.0 °C, 12.0 h) read?
The ring closure, isolated yield was 69%.

With `COc1ccc2cc1COCC(=O)Nc1ccc(S(=O)(=O)C3CC3)c(c1)CN(C)C(=O)C2Nc1ccc2c(N(C(=O)OC(C)(C)C)C(=O)OC(C)(C)C)nccc2c1` (centres unmarked) as the compound, how does the ring closure, isolated yield ([1]; from CNCc1cc(NC(=O)COCc2cc(C(Nc3ccc4c(N(C(=O)OC(C)(C)C)C(=O)OC(C)(C)C)nccc4c3)C(=O)O)ccc2OC)ccc1S(=O)(=O)C1CC1, 15-membered ring, BOP/DMAP/DIPEA, DCM/DMF, 25.0 °C, 12.0 h) read?
The ring closure, isolated yield was 54%.

Which ring closure, isolated yield ([1]; from CNCc1cc(NC(=O)C[C@@H](C)c2cc(C(Nc3ccc(C#N)cc3)C(=O)O)ccc2OCc2ccccc2)ccc1OC(F)F, 14-membered ring, BOP) does the source give for `C[C@@H]1CC(=O)Nc2ccc(OC(F)F)c(c2)CN(C)C(=O)C(Nc2ccc(C#N)cc2)c2ccc(OCc3ccccc3)c1c2` (some centres unmarked) here?
Its ring closure, isolated yield is 64%.

With `C[C@@H]1CC(=O)Nc2ccc(S(=O)(=O)C3CC3)c(c2)CN(C)C(=O)C(Nc2ccc3c(N(C(=O)OC(C)(C)C)C(=O)OC(C)(C)C)ncc(F)c3c2)c2ccc(OCc3ccccc3)c1c2` (some centres unmarked) as the compound, how does the ring closure, isolated yield ([1]; from CNCc1cc(NC(=O)C[C@@H](C)c2cc(C(Nc3ccc4c(N(C(=O)OC(C)(C)C)C(=O)OC(C)(C)C)ncc(F)c4c3)C(=O)O)ccc2OCc2ccccc2)ccc1S(=O)(=O)C1CC1, 14-membered ring, BOP) read?
Its ring closure, isolated yield is 19%.

Which ring closure, isolated yield ([1]; from CNCc1cc(NC(=O)C[C@H](C)c2cc(C(Nc3ccc4c(N(C(=O)OC(C)(C)C)C(=O)OC(C)(C)C)ncc(F)c4c3)C(=O)O)ccc2OCc2ccccc2)ccc1S(=O)(=O)C1CC1, 14-membered ring, BOP/DMAP/DIPEA, DCM/DMF, 25.0 °C) does the source give for `C[C@H]1CC(=O)Nc2ccc(S(=O)(=O)C3CC3)c(c2)CN(C)C(=O)C(Nc2ccc3c(N(C(=O)OC(C)(C)C)C(=O)OC(C)(C)C)ncc(F)c3c2)c2ccc(OCc3ccccc3)c1c2` (some centres unmarked) here?
The ring closure, isolated yield was 24%.

For `CCCCOc1ccc2cc1CCC(=O)Nc1ccc(S(=O)(=O)C3CC3)c(c1)CN(C)C(=O)[C@@H]2Nc1ccc2c(N)ncc(F)c2c1` [Example 23, (R)-11-(1-Amino-4-fluoro-isoquinolin-6-ylamino)-7-butoxy-16-cyclopropanesulfonyl-13-methyl-2,13-diaza-tricyclo[13.3.1.1^6,10]icosa-1(19),6,8,10(20),15,17-hexaene-3,12-dione trifluroracetic acid salt], which Ki (FVIIa) is on record?
The Ki was 5 nM.

Which Ki (FVIIa) does the source give for `CC(C)COc1ccc2cc1CCC(=O)Nc1ccc(S(=O)(=O)C3CC3)c(c1)CN(C)C(=O)[C@@H]2Nc1ccc2c(N)ncc(F)c2c1` [Example 24, (R)-11-(1-Amino-4-fluoro-isoquinolin-6-ylamino)-16-cyclopropanesulfonyl-7-isobutoxy-13-methyl-2,13-diaza-tricyclo[13.3.1.1^6,10]icosa-1(19),6,8,10(20),15,17-hexaene-3,12-dione trifluroracetic acid salt] here?
The Ki was 5 nM.

With `CN1Cc2cc(ccc2S(=O)(=O)C2CC2)NC(=O)CCc2cc(ccc2OCC2CCC2)[C@@H](Nc2ccc3c(N)ncc(F)c3c2)C1=O` [Example 25, (R)-11-(1-Amino-4-fluoro-isoquinolin-6-ylamino)-7-cyclobutylmethoxy-16-cyclopropanesulfonyl-13-methyl-2,13-diaza-tricyclo[13.3.1.1^6,10]icosa-1(19),6,8,10(20),15,17-hexaene-3,12-dione trifluroracetic acid salt] as the compound, how does the Ki (FVIIa) read?
Its Ki is 6 nM.

Which Ki (FVIIa) does the source give for `CC(C)Oc1ccc2cc1CCC(=O)Nc1ccc(S(=O)(=O)C3CC3)c(c1)CN(C)C(=O)[C@@H]2Nc1ccc2c(N)ncc(F)c2c1` [Example 26, (R)-11-(1-Amino-4-fluoro-isoquinolin-6-ylamino)-16-cyclopropanesulfonyl-7-isopropoxy-13-methyl-2,13-diaza-tricyclo[13.3.1.1^6,10]icosa-1(19),6,8,10(20),15,17-hexaene-3,12-dione trifluroracetic acid salt] here?
The Ki was 5 nM.

With `CN1Cc2cc(ccc2S(=O)(=O)C2CC2)NC(=O)N(CC2CCC2)CCc2cccc(c2)C(Nc2ccc3c(N)ncc(F)c3c2)C1=O` (centres unmarked) [Example 27, 5-(1-Amino-4-fluoro-isoquinolin-6-ylamino)-13-cyclobutylmethyl-19-cyclopropanesulfonyl-3-methyl-3,13,15-triaza-tricyclo[14.3.1.1^6,10]henicosa-1(19),6(21),7,9,16(20),17-hexaene-4,14-dione trifluoroacetic acid salt] as the compound, how does the Ki (FVIIa) read?
The Ki was 148 nM.

For `C[C@@H]1CC(=O)Nc2cccc(c2)[C@@H](CC(=O)O)NC(=O)[C@H](Nc2ccc(C(=N)N)cc2)c2ccc(OCC(F)F)c1c2` [Example 44, trifluoroacetic acid salt], which Ki (FVIIa) is on record?
Its Ki is 5 nM.

Which Ki (FVIIa) does the source give for “(R)-11-(1-Amino-4-fluoro-isoquinolin-6-ylamino)-16-cyclopropane sulfonyl-7-(2,2-difluoro-ethoxy)-13-methyl-2,13-diaza-tricyclo[13.3.1.1^6,10]icosa-1(18),6,8,10(20),15(19),16-hexaene-3,12-dione trifluoroacetic acid salt [Example 33]” here?
Its Ki is 21 nM.

Which Ki (FVIIa) does the source give for “(R)-11-(5-Amino-8-fluoro-naphthalen-2-ylamino)-16-cyclopropanesulfonyl-7-cyclopropyl-13-methyl-2,13-diaza-tricyclo[13.3.1.1^6,10]icosa-1(18),6,8,10(20),15(19),16-hexaene-3,12-dione trifluoroacetic acid salt [Example 36]” here?
The Ki was 5 nM.
